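Growth conditions: 96-well plates. Treatment: test compound, 48 hours, 5 concentrations. Analysis: linear interpolation between bracketing concentrations; unreached endpoints set to highest concentration. GI50 = concentration required for 50% inhibition of growth. TGI: concentration producing complete growth inhibition.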
Legend:
Experiment in all cases: NCI anticancer screen, dose series, 48 h
[1] = system: NCI-H522 lung
[2] = system: UACC-257 melanoma
[3] = system: HS 578T breast
[4] = system: LOX IMVI melanoma
[5] = system: IGROV1 ovarian
[6] = system: KM12 colon
[7] = system: CAKI-1 renal
[8] = system: OVCAR-8 ovarian
[9] = system: OVCAR-4 ovarian
[10] = system: EKVX NSCLC
[11] = system: SK-OV-3 ovarian
[12] = system: SK-MEL-5 melanoma
[13] = system: COLO 205 colon
[14] = system: SK-MEL-2 melanoma
[15] = system: T-47D breast
[16] = system: NCI-H460 lung
[17] = system: TK-10 renal
[18] = system: SR leukemia
[19] = system: OVCAR-3 ovarian
[20] = system: HOP-62 NSCLC
[21] = system: UACC-62 melanoma
[22] = system: SF-268 CNS
[23] = system: HCT-116 colon
[24] = system: RXF 393 renal
[25] = system: HT29 colon
[26] = system: U251 CNS
[27] = system: OVCAR-5 ovarian
[28] = system: NCI-H23 lung
[29] = system: SF-295 CNS
[30] = system: DU-145 prostate
[31] = system: MDA-MB-231 breast
[32] = system: UO-31 renal
[33] = system: SNB-75 CNS
[34] = system: M14 melanoma
[35] = system: A549 NSCLC
[36] = system: MCF7 breast
[37] = system: SK-MEL-28 melanoma
[38] = system: HCT-15 colon
[39] = system: SW-620 colon
[40] = system: MALME-3M melanoma
[41] = system: K-562 leukemia
[42] = system: MDA-MB-435
[43] = system: SF-539 CNS
[44] = system: A498 renal
[45] = system: HCC-2998 colon
[46] = system: 786-0 renal
[47] = system: BT-549 breast
[48] = system: SNB-19 CNS
[49] = system: NCI-H226 lung
[50] = system: SN12C renal
[51] = system: HL-60(TB) leukemia
[52] = system: ACHN renal
[53] = system: PC-3 prostate
[54] = system: RPMI-8226 leukemia
[55] = system: CCRF-CEM leukemia
[56] = system: MOLT-4 leukemia

O=c1oc2c(cc1-c1ccccc1)C(O)Oc1ccccc1-2 (stereo not drawn)
GI50 [1]: 4.97 µM
TGI [1]: 21.2 µM
GI50 [2]: 12.4 µM
TGI [2]: 35.4 µM
GI50 [3]: 13.4 µM
TGI [3]: > 100 µM
GI50 [4]: 13 µM
TGI [4]: > 100 µM
GI50 [5]: 10.4 µM
TGI [5]: 91.9 µM
GI50 [6]: 3.04 µM
TGI [6]: 23.4 µM
GI50 [7]: 5.09 µM
TGI [7]: > 100 µM
GI50 [8]: 6.89 µM
TGI [8]: > 100 µM
GI50 [9]: 14.8 µM
TGI [9]: 70.6 µM
GI50 [10]: 28.1 µM
TGI [10]: > 100 µM
GI50 [11]: 10.2 µM
TGI [11]: 75.7 µM
GI50 [12]: 3.8 µM
TGI [12]: 16.5 µM
GI50 [13]: 7.72 µM
TGI [13]: 25.9 µM
GI50 [14]: 5.81 µM
TGI [14]: 30.6 µM
GI50 [15]: 4.41 µM
TGI [15]: 22.3 µM
GI50 [16]: 4.12 µM
TGI [16]: > 100 µM
GI50 [17]: 6.46 µM
TGI [17]: > 100 µM
GI50 [18]: 2.89 µM
TGI [18]: 13.7 µM
GI50 [19]: 2.6 µM
TGI [19]: > 100 µM
GI50 [20]: 10.3 µM
TGI [20]: 78.8 µM
GI50 [21]: 12.8 µM
TGI [21]: 39.7 µM
GI50 [22]: 16.3 µM
TGI [22]: 83.6 µM
GI50 [23]: 3.9 µM
TGI [23]: 34.6 µM
GI50 [24]: 2.42 µM
TGI [24]: 6.41 µM
GI50 [25]: 3.21 µM
TGI [25]: > 100 µM
GI50 [26]: 7.92 µM
TGI [26]: > 100 µM
GI50 [27]: 31.3 µM
TGI [27]: > 100 µM
GI50 [28]: 7.94 µM
TGI [28]: 25 µM
GI50 [29]: 8.79 µM
TGI [29]: 97.1 µM
GI50 [30]: 18.9 µM
TGI [30]: > 100 µM
GI50 [31]: 15.5 µM
TGI [31]: > 100 µM
GI50 [32]: 11.5 µM
TGI [32]: 52.3 µM
GI50 [33]: 3.54 µM
TGI [33]: 29 µM
GI50 [34]: 3.32 µM
TGI [34]: 14.5 µM
GI50 [35]: 7.84 µM
TGI [35]: 95.8 µM
GI50 [36]: 4.29 µM
TGI [36]: > 100 µM
GI50 [37]: 3.1 µM
TGI [37]: 25 µM
GI50 [38]: 5.04 µM
TGI [38]: > 100 µM
GI50 [39]: 4.37 µM
TGI [39]: > 100 µM
GI50 [40]: 9.19 µM
TGI [40]: 58.5 µM
GI50 [41]: 4.27 µM
TGI [41]: > 100 µM
GI50 [42]: 1.62 µM
TGI [42]: > 100 µM
GI50 [43]: 12.4 µM
TGI [43]: 98 µM
GI50 [44]: 7.98 µM
TGI [44]: 44.7 µM
GI50 [45]: 3.55 µM
TGI [45]: 19.3 µM
GI50 [46]: 11.6 µM
TGI [46]: > 100 µM
GI50 [47]: 17.4 µM
TGI [47]: > 100 µM
GI50 [48]: 6.38 µM
TGI [48]: > 100 µM
GI50 [49]: 28.8 µM
TGI [49]: > 100 µM
GI50 [50]: 20.5 µM
TGI [50]: > 100 µM
GI50 [51]: 2.6 µM
TGI [51]: 26.8 µM
GI50 [52]: 20.4 µM
TGI [52]: > 100 µM

CCCC(=O)O[C@]1(C)CC[C@@H]2[C@H]3[C@@H]1[C@@H]1C/C(C)=C\CC[C@](C)(OC(=O)[C@@H]2C)[C@H]3O1
GI50 [1]: 19.6 µM
TGI [1]: 75.5 µM
GI50 [2]: 43.3 µM
TGI [2]: > 100 µM
GI50 [3]: 40 µM
TGI [3]: > 100 µM
GI50 [4]: 24.6 µM
TGI [4]: 59.9 µM
GI50 [5]: 24.3 µM
TGI [5]: > 100 µM
GI50 [6]: 32.8 µM
TGI [6]: > 100 µM
GI50 [7]: 31.7 µM
TGI [7]: > 100 µM
GI50 [8]: 47.6 µM
TGI [8]: > 100 µM
GI50 [9]: 52.9 µM
TGI [9]: > 100 µM
GI50 [10]: 68.3 µM
TGI [10]: > 100 µM
GI50 [11]: > 100 µM
TGI [11]: > 100 µM
GI50 [12]: 13.4 µM
TGI [12]: 33.1 µM
GI50 [13]: 43.2 µM
TGI [13]: > 100 µM
GI50 [14]: 49.5 µM
TGI [14]: > 100 µM
GI50 [15]: > 100 µM
TGI [15]: > 100 µM
GI50 [16]: 22.5 µM
TGI [16]: 69.8 µM
GI50 [17]: 86.9 µM
TGI [17]: > 100 µM
GI50 [18]: 13.2 µM
TGI [18]: 26.9 µM
GI50 [19]: 30.3 µM
TGI [19]: > 100 µM
GI50 [20]: 60.3 µM
TGI [20]: > 100 µM
GI50 [21]: 24.4 µM
TGI [21]: > 100 µM
GI50 [22]: 47.8 µM
TGI [22]: > 100 µM
GI50 [53]: 16.2 µM
TGI [53]: 41.3 µM
GI50 [23]: 18.8 µM
TGI [23]: 38.2 µM
GI50 [54]: 15.9 µM
TGI [54]: 37.6 µM
GI50 [55]: 8.89 µM
TGI [55]: 26 µM
GI50 [24]: > 100 µM
TGI [24]: > 100 µM
GI50 [25]: 32.1 µM
TGI [25]: > 100 µM
GI50 [26]: 41.8 µM
TGI [26]: > 100 µM
GI50 [27]: 38.2 µM
TGI [27]: > 100 µM
GI50 [29]: 41.2 µM
TGI [29]: > 100 µM
GI50 [30]: 74.5 µM
TGI [30]: > 100 µM
GI50 [31]: 25.5 µM
TGI [31]: 94.4 µM
GI50 [56]: 14.7 µM
TGI [56]: 30.5 µM
GI50 [32]: 23.6 µM
TGI [32]: 65.6 µM
GI50 [33]: > 100 µM
TGI [33]: > 100 µM
GI50 [34]: 32.5 µM
TGI [34]: > 100 µM
GI50 [35]: 40.1 µM
TGI [35]: > 100 µM
GI50 [36]: 29.1 µM
TGI [36]: > 100 µM
GI50 [37]: 78.5 µM
TGI [37]: > 100 µM
GI50 [38]: 44.4 µM
TGI [38]: > 100 µM
GI50 [39]: 40.6 µM
TGI [39]: > 100 µM
GI50 [40]: 61.1 µM
TGI [40]: > 100 µM
GI50 [42]: 32.6 µM
TGI [42]: > 100 µM
GI50 [43]: > 100 µM
TGI [43]: > 100 µM
GI50 [45]: 21.7 µM
TGI [45]: 82.9 µM
GI50 [46]: 72.6 µM
TGI [46]: > 100 µM
GI50 [47]: 61.9 µM
TGI [47]: > 100 µM
GI50 [48]: > 100 µM
TGI [48]: > 100 µM
GI50 [49]: 41.3 µM
TGI [49]: > 100 µM
GI50 [50]: 47.9 µM
TGI [50]: > 100 µM
GI50 [52]: 36.2 µM
TGI [52]: > 100 µM

Reference: PubChem BioAssay (NCI)
